Activity calls are given as the source filed them.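 How the source made its calls: active means mean IC50 for reducing PEG3 promoter reporter signal at or below a set limit, with IC50 above the limit in both counter screens; inactive means the rest, including counter screen hits.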
What was measured:
[1] = tested on: PEG-3; experiment: inhibition of PEG-3 promoter-driven reporter – cell-based, HeLa, luciferase, CREF/GAPDH counter-screen panel, dose response (AID 624167); settings: HeLa PEG-Prom luciferase reporter, overnight, CREF/GAPDH counter-screens
[2] = target: PEG-3 (UniProt Q6IN02); experiment: as above; settings: HeLa PEG-Prom luciferase reporter, overnight, CREF/GAPDH counter-screens, mean of runs
[3] = run 1, dose range 1, individual replicate IC50 per panel
[4] = run 2, dose range 1, individual replicate IC50 per panel

PEG-3 (UniProt Q6IN02), sequence (Q6IN02 whole entry, looked up): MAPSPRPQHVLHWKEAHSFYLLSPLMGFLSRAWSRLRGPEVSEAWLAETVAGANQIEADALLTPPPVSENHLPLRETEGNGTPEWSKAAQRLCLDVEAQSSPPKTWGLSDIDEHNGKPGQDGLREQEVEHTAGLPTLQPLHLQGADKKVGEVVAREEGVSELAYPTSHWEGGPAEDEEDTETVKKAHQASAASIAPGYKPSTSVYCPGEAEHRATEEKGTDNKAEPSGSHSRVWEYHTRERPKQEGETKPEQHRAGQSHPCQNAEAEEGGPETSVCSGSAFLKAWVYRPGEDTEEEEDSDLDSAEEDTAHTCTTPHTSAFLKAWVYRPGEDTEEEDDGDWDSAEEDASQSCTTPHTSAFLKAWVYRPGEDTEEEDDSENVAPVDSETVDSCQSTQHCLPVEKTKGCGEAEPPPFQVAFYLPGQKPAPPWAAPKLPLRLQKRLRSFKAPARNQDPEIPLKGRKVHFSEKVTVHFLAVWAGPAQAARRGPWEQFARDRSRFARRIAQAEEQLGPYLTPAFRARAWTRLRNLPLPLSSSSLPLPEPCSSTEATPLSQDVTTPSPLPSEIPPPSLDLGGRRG

| SMILES | IC50 [1, 3] [µM] | IC50 [1, 4] [µM] | IC50 [2] |
| --- | --- | --- | --- |
| CC(NC(=O)c1ccc([N+](=O)[O-])o1)C12CC3CC(CC(C3)C1)C2 (configuration not stated) | 32.3 | 14.9 | inactive |
| COc1ccc(-n2ncc3c(N(C)C4CCCCC4)ncnc32)cc1 | 26.5 | 44 | inactive |
| NCCCNc1nc(N)c([N+](=O)[O-])c(NC2CCCCC2)n1 | 10.7 | 13.9 | 12.3 µM |
| O/N=C(\c1ccc(Cl)cc1Cl)c1ncc(C(F)(F)F)cc1Cl | 32.4 | 29.9 | inactive |
| CCOC(=O)c1c(NC(C)=O)sc2c(OCC(O)CNC(C)(C)C)c(Br)ccc12 (configuration not stated) | 18 | 9.14 | 13.6 µM |
| O=C(Nc1ccc(CN2CCCCC2)cc1)Nc1ccc(Br)cc1Cl | 20.4 | 19.8 | inactive |
| COc1cccc(-c2sc3ccc(OC)cc3c2-c2ccc(OCCN(C)C)cc2)c1 | 15.7 | 15.2 | 15.5 µM |
| O=C(Nc1ccc2oc(-c3ccncc3)nc2c1)c1ccc([N+](=O)[O-])o1 | 15.9 | 6.56 | 11.2 µM |
| CC(C)CC(NS(=O)(=O)OCC(Cl)(Cl)Cl)c1ccccc1 (configuration not stated) | 47.6 | 17.5 | inactive |
| CCC1(c2ccccc2)NC(=O)N(CC(=O)Nc2cc(S(=O)(=O)N3CCCCCC3)ccc2OC)C1=O (configuration not stated) | 13.9 | 13.5 | 13.7 µM |
| O=C(CCN1C(=O)/C(=C/c2cccs2)SC1=S)N1CCCCC1 | 24.6 | 25.5 | inactive |
| CC1CCCC(C)N1C(=C(Cl)Cl)C(=C1SCCS1)[N+](=O)[O-] (configuration not stated) | 11.5 | 16.6 | 14 µM |
| O=S(=O)(NC1CC(NS(=O)(=O)OCC(Cl)(Cl)Cl)C2CCCCC12)OCC(Cl)(Cl)Cl (configuration not stated) | 10.8 | 11.9 | 11.4 µM |
| COc1ccc(-c2cc(C(=O)N3CCN(c4ccccc4F)CC3)c3ccccc3n2)c(OC)c1 | 9.03 | 13 | 11 µM |
| Cc1nn(-c2ccccc2Cl)c(Cl)c1/C=N/Nc1nc2ccccc2s1 | < 0.2 | < 0.2 | < 0.2 µM |
| O=Cc1cn(Cc2ccc(F)cc2)c2ccccc12 | 12.5 | 24.1 | 18.3 µM |
| O=C(c1ccoc1)N1CCN(c2cc(-c3ccccc3)nc3cc(-c4ccccc4)nn23)CC1 | 13.3 | 9.7 | 11.5 µM |
| COc1ccc(C(O)(CCC(C)C)C(CN2CCOCC2)c2ccccc2)cc1 (configuration not stated) | 30.5 | 30.2 | inactive |
| CCN(C(=O)CSc1nc2n[nH]c(C)c2c(=N)n1-c1ccc(Cl)c(C)c1)c1cccc(C)c1 | 19.1 | 20.8 | 20 µM |
| Cc1nn(C(C)(C)C)c(C)c1/C=N/OC(=O)Nc1ccc(Cl)cc1 | 6.13 | < 0.2 | 3.17 µM |
| O=S(=O)(Nc1cccc2ncccc12)c1cccs1 | 17.5 | 8.93 | 13.2 µM |
| OC[C@@H]1[C@@H](c2ccc(Cl)cc2)C(c2cccc(Cl)c2)=NN1c1ccccc1 | 30.5 | 16.4 | inactive |
| CC(C)NC(=O)NC(=O)COC(=O)c1c2c(nc3ccccc13)CCC2 | 16.5 | 27.8 | inactive |
| O=C(Nc1cccc(S(=O)(=O)N2CCOCC2)c1)c1ccc2c(=O)n3c(nc2c1)CCCCC3 | 25.3 | 43.1 | inactive |
| COc1ccc(Nc2nc(-c3ccccc3)nc3ccccc23)cc1S(=O)(=O)N1CCOCC1 | 9.14 | 33.9 | inactive |

| SMILES | IC50 [1, 3] [µM] | IC50 [1, 4] [µM] | IC50 [2] |
| --- | --- | --- | --- |
| CCCCCCCCNCCS(=O)(=O)NCc1ccc(OC)cc1 | 17.7 | 18.3 | 18 µM |
| O=Cc1cn(Cc2ccc(Br)cc2)c2ccccc12 | 43.8 | > 100 | inactive |
| Cn1cccc1/C=C1/C(=O)NC(=S)N(Cc2ccc(F)cc2)C1=O | 31.9 | 38.1 | inactive |
| OC1(c2ccc(Cl)c(Cl)c2)C[n+]2ccccc2N1Cc1ccccc1 (configuration not stated) | 16 | 14.1 | 15.1 µM |
| COCCn1c(C)cc(C(=O)CSc2nnc3ccccn23)c1C | 8.34 | 21.8 | 15.1 µM |
| O=C1N[C@@H](c2ccccc2)COC(=O)[C@@H](Cc2ccc(F)cc2)CC/C=C/C[C@H]1CC(=O)N(CCO)Cc1ccccc1 | 41 | > 100 | inactive |
| COc1cccc2c1C(=N)c1c(O)c3c(c(O)c1C2=O)CC(O)(C(C)=O)CC3OC1CC(N)C(O)C(C)O1 (configuration not stated) | 15.7 | 7.56 | 11.6 µM |
| O=C1C(Cl)=C(Nc2ccc(O)cc2)C(=O)c2ccccc21 | 16.1 | 7.05 | 11.6 µM |
| COc1ccccc1CNC(=O)c1c(N)n(CCCN2CCOCC2)c2nc3ccccc3nc12 | 18.3 | 9.79 | 14.1 µM |
| CC(=O)Nc1cccc(-c2ccnc3c2CC(C)(C(=O)Nc2cccc(OC(F)(F)F)c2)O3)c1 (configuration not stated) | 8.81 | 25.7 | 17.3 µM |
| Cc1cccc(N2CCN(C(=O)C3CCN(c4ncnc5c4nc4n5CCCCC4)CC3)CC2)c1C | 30.2 | 18.3 | inactive |
| O=c1[nH]c(=O)n(C2OC(CO)C(O)C2O)cc1F (configuration not stated) | 25.6 | 3.07 | 14.3 µM |
| Cc1cccc(C)c1-n1nnnc1C(c1ccccc1OC(F)(F)F)N1CCC(n2c(=O)[nH]c3ccccc32)CC1 (configuration not stated) | 20.8 | 4.64 | 12.7 µM |
| O=S(=O)(c1cccs1)N1CCN(c2ccnc3cc(Cl)ccc23)CC1 | 11.7 | 23.2 | 17.4 µM |
| CC(C)CC(N)c1csc(NC(=O)Nc2ccccc2C(C)C)n1 (configuration not stated) | 30.1 | 1.37 | 15.7 µM |
| CCOc1cccc2sc(N(CCCN(C)C)C(=O)c3ccc(S(=O)(=O)N(CC)Cc4ccccc4)cc3)nc12 | 19.1 | 11.8 | 15.4 µM |
| CCCCCCCCCCCCCCC(O)C[N+](C)(CCO)CCO (configuration not stated) | 17.7 | 11 | 14.3 µM |
| Nc1nc(CCl)nc(Nc2cccc3ccccc23)n1 | > 100 | > 100 | > 100 µM (inactive) |
| COc1ccc(-c2cc(C(=O)N3CCN(c4ncccn4)CC3)c3ccccc3n2)c(OC)c1 | 39.3 | 98.5 | inactive |
| CN(C)S(=O)(=O)c1cccc(NC(=O)CSc2cccc3cccnc23)c1 | 23.7 | 19.6 | inactive |
| O=C(C(=O)N(Cc1ccccc1)Cc1ccccc1)c1c(-c2ccccc2)[nH]c2ccccc12 | > 100 | 7.5 | inactive |
| CN(C)CCNc1ncnc2c1sc1nc(N3CCOCC3)c3c(c12)CC(C)(C)SC3 | 18.1 | 10.6 | 14.4 µM |
| COc1cc(/C=C/[N+](=O)[O-])ccc1OC(=O)/C=C/c1ccc(F)cc1 | > 100 | > 100 | > 100 µM (inactive) |
| O=C(O)c1ccc(N/N=C/c2ccc(OC(=O)c3ccccc3Cl)cc2)cc1 | 3.06 | 78.5 | inactive |

Source: PubChem BioAssay AID624167 (Sanford-Burnham Center for Chemical Genomics, 2012)
